Test results from PubChem BioAssay (NCI).
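Compound exposure: 48 hours, 5 concentrations, 96-well plates. GI50: concentration for 50% inhibition of growth. TGI: concentration producing complete growth inhibition.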

Tests used:
Assay in all cases: DTP human tumour cell line panel, 48 h
786-0 renal = tested on: 786-0 renal
A498 renal = tested on: A498 renal
A549 NSCLC = tested on: A549 NSCLC
ACHN renal = tested on: ACHN renal
BT-549 breast = tested on: BT-549 breast
CAKI-1 renal = tested on: CAKI-1 renal
CCRF-CEM leukemia = tested on: CCRF-CEM leukemia
COLO 205 colon = tested on: COLO 205 colon
DU-145 prostate = tested on: DU-145 prostate
EKVX NSCLC = tested on: EKVX NSCLC
HCC-2998 colon = tested on: HCC-2998 colon
HCT-116 colon = tested on: HCT-116 colon
HCT-15 colon = tested on: HCT-15 colon
HL-60(TB) leukemia = tested on: HL-60(TB) leukemia
HOP-62 NSCLC = tested on: HOP-62 NSCLC
HOP-92 NSCLC = tested on: HOP-92 NSCLC
HS 578T breast = tested on: HS 578T breast
HT29 colon = tested on: HT29 colon
IGROV1 ovarian = tested on: IGROV1 ovarian
K-562 leukemia = tested on: K-562 leukemia
KM12 colon = tested on: KM12 colon
LOX IMVI melanoma = tested on: LOX IMVI melanoma
M14 melanoma = tested on: M14 melanoma
MALME-3M melanoma = tested on: MALME-3M melanoma
MCF7 breast = tested on: MCF7 breast
MDA-MB-231 breast = tested on: MDA-MB-231 breast
MDA-MB-435 = tested on: MDA-MB-435
MDA-MB-468 breast = tested on: MDA-MB-468 breast
MOLT-4 leukemia = tested on: MOLT-4 leukemia
NCI-H226 lung = tested on: NCI-H226 lung
NCI-H23 lung = tested on: NCI-H23 lung
NCI-H460 lung = tested on: NCI-H460 lung
NCI-H522 lung = tested on: NCI-H522 lung
NCI/ADR-RES ovarian = tested on: NCI/ADR-RES ovarian
OVCAR-3 ovarian = tested on: OVCAR-3 ovarian
OVCAR-4 ovarian = tested on: OVCAR-4 ovarian
OVCAR-5 ovarian = tested on: OVCAR-5 ovarian
OVCAR-8 ovarian = tested on: OVCAR-8 ovarian
PC-3 prostate = tested on: PC-3 prostate
RPMI-8226 leukemia = tested on: RPMI-8226 leukemia
RXF 393 renal = tested on: RXF 393 renal
SF-268 CNS = tested on: SF-268 CNS
SF-295 CNS = tested on: SF-295 CNS
SF-539 CNS = tested on: SF-539 CNS
SK-MEL-2 melanoma = tested on: SK-MEL-2 melanoma
SK-MEL-28 melanoma = tested on: SK-MEL-28 melanoma
SK-MEL-5 melanoma = tested on: SK-MEL-5 melanoma
SK-OV-3 ovarian = tested on: SK-OV-3 ovarian
SN12C renal = tested on: SN12C renal
SNB-19 CNS = tested on: SNB-19 CNS
SNB-75 CNS = tested on: SNB-75 CNS
SR leukemia = tested on: SR leukemia
SW-620 colon = tested on: SW-620 colon
TK-10 renal = tested on: TK-10 renal
U251 CNS = tested on: U251 CNS
UACC-257 melanoma = tested on: UACC-257 melanoma
UACC-62 melanoma = tested on: UACC-62 melanoma
UO-31 renal = tested on: UO-31 renal

For `OCCNc1oc(-c2ccccc2)nc1[P+](c1ccccc1)(c1ccccc1)c1ccccc1`, the GI50 (786-0 renal) was 13.2 µM, the TGI (786-0 renal) was 29.8 µM and the GI50 (A498 renal) was 15.4 µM. It also gave a TGI (A498 renal) of 48.2 µM, a GI50 (A549 NSCLC) of 18.5 µM and a TGI (A549 NSCLC) greater than 100 µM. The GI50 (ACHN renal) was 18.8 µM, the TGI (ACHN renal) was 85.1 µM and the GI50 (BT-549 breast) was 2.51 µM. For the same molecule, the TGI (BT-549 breast) was 7.88 µM, the GI50 (CAKI-1 renal) was 11.5 µM and the TGI (CAKI-1 renal) was 43.1 µM. It also gave a GI50 (CCRF-CEM leukemia) of 3.07 µM, a TGI (CCRF-CEM leukemia) of 19.9 µM and a GI50 (COLO 205 colon) of 2.14 µM. The TGI (COLO 205 colon) was 7.86 µM, the GI50 (DU-145 prostate) was 6.1 µM and the TGI (DU-145 prostate) was 21.3 µM. It also gave a GI50 (EKVX NSCLC) of 5.1 µM, a TGI (EKVX NSCLC) of 28.3 µM and a GI50 (HCC-2998 colon) of 3.3 µM. It also gave a TGI (HCC-2998 colon) of 11.7 µM, a GI50 (HCT-116 colon) of 4.8 µM and a TGI (HCT-116 colon) of 35.1 µM. For the same molecule, the GI50 (HCT-15 colon) was 29.8 µM, the TGI (HCT-15 colon) was greater than 100 µM and the GI50 (HL-60(TB) leukemia) was 1.57 µM. The TGI (HL-60(TB) leukemia) was 5.33 µM, the GI50 (HOP-62 NSCLC) was 10 µM and the TGI (HOP-62 NSCLC) was 34.4 µM. For the same molecule, the GI50 (HOP-92 NSCLC) was 1.35 µM, the TGI (HOP-92 NSCLC) was 6.73 µM and the GI50 (HS 578T breast) was 3.21 µM. For the same molecule, the TGI (HS 578T breast) was 13.3 µM, the GI50 (HT29 colon) was 3.04 µM and the TGI (HT29 colon) was 17.5 µM. It also gave a GI50 (IGROV1 ovarian) of 2.57 µM, a TGI (IGROV1 ovarian) of 8.53 µM and a GI50 (K-562 leukemia) of 2.5 µM. For the same molecule, the TGI (K-562 leukemia) was 20.7 µM, the GI50 (KM12 colon) was 3.21 µM and the TGI (KM12 colon) was 11.2 µM. It also gave a GI50 (LOX IMVI melanoma) of 3.93 µM, a TGI (LOX IMVI melanoma) of 14.6 µM and a GI50 (M14 melanoma) of 4.4 µM. For the same molecule, the TGI (M14 melanoma) was 20.2 µM, the GI50 (MALME-3M melanoma) was 1.95 µM and the TGI (MALME-3M melanoma) was 6.52 µM. The GI50 (MCF7 breast) was 2.69 µM, the TGI (MCF7 breast) was 12.5 µM and the GI50 (MDA-MB-231 breast) was 1.87 µM. The TGI (MDA-MB-231 breast) was 5.2 µM, the GI50 (MDA-MB-435) was 2.99 µM and the TGI (MDA-MB-435) was 11.3 µM. The GI50 (MDA-MB-468 breast) was 1.08 µM, the TGI (MDA-MB-468 breast) was 4.35 µM and the GI50 (MOLT-4 leukemia) was 4.43 µM. It also gave a TGI (MOLT-4 leukemia) of 35.1 µM, a GI50 (NCI-H226 lung) of 4.05 µM and a TGI (NCI-H226 lung) of 24.5 µM. For the same molecule, the GI50 (NCI-H23 lung) was 4.3 µM, the TGI (NCI-H23 lung) was 23.8 µM and the GI50 (NCI-H460 lung) was 3.29 µM. It also gave a TGI (NCI-H460 lung) of 13.6 µM, a GI50 (NCI-H522 lung) of 2.15 µM and a TGI (NCI-H522 lung) of 9.32 µM. For the same molecule, the GI50 (NCI/ADR-RES ovarian) was greater than 100 µM, the TGI (NCI/ADR-RES ovarian) was greater than 100 µM and the GI50 (OVCAR-3 ovarian) was 2.35 µM. The TGI (OVCAR-3 ovarian) was 11 µM, the GI50 (OVCAR-4 ovarian) was 3.68 µM and the TGI (OVCAR-4 ovarian) was 59.4 µM. The GI50 (OVCAR-5 ovarian) was 5.06 µM, the TGI (OVCAR-5 ovarian) was 34.2 µM and the GI50 (OVCAR-8 ovarian) was 3.79 µM. It also gave a TGI (OVCAR-8 ovarian) of 15.2 µM, a GI50 (PC-3 prostate) of 2.22 µM and a TGI (PC-3 prostate) of 11.1 µM. It also gave a GI50 (RPMI-8226 leukemia) of 0.956 µM, a TGI (RPMI-8226 leukemia) of 11.7 µM and a GI50 (RXF 393 renal) of 1.86 µM. For the same molecule, the TGI (RXF 393 renal) was 9.35 µM, the GI50 (SF-268 CNS) was 3.4 µM and the TGI (SF-268 CNS) was 16.6 µM. The GI50 (SF-295 CNS) was 10.5 µM, the TGI (SF-295 CNS) was 24.2 µM and the GI50 (SF-539 CNS) was 5.63 µM. For the same molecule, the TGI (SF-539 CNS) was 19.5 µM, the GI50 (SK-MEL-2 melanoma) was 2.58 µM and the TGI (SK-MEL-2 melanoma) was 7.18 µM. For the same molecule, the GI50 (SK-MEL-28 melanoma) was 2.59 µM, the TGI (SK-MEL-28 melanoma) was 11.4 µM and the GI50 (SK-MEL-5 melanoma) was 1.52 µM. The TGI (SK-MEL-5 melanoma) was 2.92 µM, the GI50 (SK-OV-3 ovarian) was 3.58 µM and the TGI (SK-OV-3 ovarian) was 16.6 µM. It also gave a GI50 (SN12C renal) of 2.82 µM, a TGI (SN12C renal) of 8.53 µM and a GI50 (SNB-19 CNS) of 2.82 µM. The TGI (SNB-19 CNS) was 10.9 µM, the GI50 (SNB-75 CNS) was 1.85 µM and the TGI (SNB-75 CNS) was 7.92 µM. For the same molecule, the GI50 (SR leukemia) was 5.12 µM, the TGI (SR leukemia) was 22.8 µM and the GI50 (SW-620 colon) was 4.74 µM. It also gave a TGI (SW-620 colon) of 35.5 µM, a GI50 (TK-10 renal) of 6 µM and a TGI (TK-10 renal) of 23.1 µM. It also gave a GI50 (U251 CNS) of 3.28 µM, a TGI (U251 CNS) of 15.4 µM and a GI50 (UACC-257 melanoma) of 2.65 µM. For the same molecule, the TGI (UACC-257 melanoma) was 8.47 µM, the GI50 (UACC-62 melanoma) was 1.63 µM and the TGI (UACC-62 melanoma) was 4.28 µM. The GI50 (UO-31 renal) was 20.4 µM and the TGI (UO-31 renal) was 71 µM.
